Source: PubChem BioAssay (NCI)
“And” between values parts separate entries of the source, which are not always exact repeats. Equal values may be shown once.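 Growth conditions: 96-well plates. Treatment: test compound, 48 hours, 5 concentrations. Analysis: linear interpolation between bracketing concentrations; unreached endpoints set to highest concentration. GI50 marks 50% less growth. TGI is the concentration that stops growth completely.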

Experiments:
Experiment in all cases: growth of human tumour cells (NCI), 48 h
OVCAR-5 ovarian = tested on: OVCAR-5 ovarian
UACC-257 melanoma = tested on: UACC-257 melanoma
SNB-19 CNS = tested on: SNB-19 CNS
SN12C renal = tested on: SN12C renal
EKVX NSCLC = tested on: EKVX NSCLC
HT29 colon = tested on: HT29 colon
SK-MEL-5 melanoma = tested on: SK-MEL-5 melanoma
SF-539 CNS = tested on: SF-539 CNS
MALME-3M melanoma = tested on: MALME-3M melanoma
HCT-116 colon = tested on: HCT-116 colon

SMILES	GI50 (OVCAR-5 ovarian)	TGI (OVCAR-5 ovarian)	GI50 (UACC-257 melanoma)	TGI (UACC-257 melanoma)	GI50 (SNB-19 CNS)	TGI (SNB-19 CNS)	GI50 (SN12C renal)	TGI (SN12C renal)	GI50 (EKVX NSCLC)	TGI (EKVX NSCLC)	GI50 (HT29 colon)	TGI (HT29 colon)	GI50 (SK-MEL-5 melanoma)	TGI (SK-MEL-5 melanoma)	GI50 (SF-539 CNS)	TGI (SF-539 CNS)	GI50 (MALME-3M melanoma)	TGI (MALME-3M melanoma)	GI50 (HCT-116 colon)	TGI (HCT-116 colon)
C1CN(SSN2CCOCC2)CCO1	39 µM	> 100 µM	62.8 µM	> 100 µM	> 100000 nM	> 100 µM	26600 nM	77.8 µM	> 100000 nM	> 100 µM	19900 nM	43.1 µM	41100 nM	> 100 µM	24.3 µM	80.7 µM	53600 nM	> 100 µM	20000 nM	40.6 µM
COc1ccc2c(c1)C(=O)c1c-2c(N(C)C)nc2ccccc12	> 100 µM	> 100 µM	> 100 µM	> 100 µM	> 100000 nM	> 100 µM	95300 nM	> 100 µM	> 100000 nM	> 100 µM	> 100000 nM	> 100 µM	> 100000 nM	> 100 µM	> 100 µM	> 100 µM	> 100000 nM	> 100 µM	> 100000 nM	> 100 µM
CC1=C(CO)C(=O)O[C@@H]([C@@H](C)[C@H]2CC[C@H]3[C@@H]4C[C@@H](O)[C@@]5(O)CC=CC(=O)[C@]5(C)[C@H]4CC[C@]23C)C1		> 100 µM		> 100 µM		> 100 µM		> 100 µM		> 100 µM		> 100 µM		> 100 µM		> 100 µM		44.7 µM		55.5 µM
CCOC(=O)NC(=O)c1cn(CCN2CCN(c3ncnc4nc[nH]c34)CC2)c(=O)[nH]c1=O		> 100 µM		> 100 µM		> 100 µM		> 100 µM		> 100 µM		> 100 µM		> 100 µM		> 100 µM		> 100 µM		> 100 µM
CCCCN(CCCC)c1ccc(C(=N)c2ccc(N(CCCC)CCCC)cc2)cc1	0.88 µM	2.31 µM	0.561 µM	1.63 µM	468 nM	1.91 µM	350 nM	1.44 µM	277 nM	1.15 µM	282 nM	1.03 µM	547 nM	1.61 µM	1.49 µM	2.95 µM	508 nM	2.12 µM	339 nM	1.31 µM
CCN(CC)Cc1ccc(Nc2nccc(-c3cnn4ncccc34)n2)cc1	0.0209 µM	> 25 µM	0.0443 µM	0.143 µM	29.6 nM	> 25 µM	14.1 nM	> 25 µM	49.8 nM		12.1 nM	0.0984 µM	41.9 nM	0.215 µM	0.00973 µM	0.0781 µM	33 nM	0.11 µM	9.84 nM	> 25 µM
O=C1c2c(O)cccc2C(C2OC(CO)C(O)C(O)C2O)c2cc(CO)cc(O)c21 (configuration not stated)		> 100 µM		> 100 µM		> 100 µM		> 100 µM		> 100 µM		> 100 µM		> 100 µM		> 100 µM		> 100 µM		> 100 µM
C=C1C(=O)OC2C1C(OC(=O)/C(C)=C/C)CC(O)(CCl)C1C(O)C3OC3(C)C21O (configuration not stated)		> 50 µM		> 50 µM		> 50 µM		> 50 µM		> 50 µM		> 50 µM		> 50 µM		> 50 µM		10.6 µM		23.7 µM
CCc1ccc(NC(=O)COC(=O)c2cc([N+](=O)[O-])ccc2Sc2nnnn2C)cc1	17.2 µM	76 µM	19.3 µM	61.2 µM	16500 nM	52.1 µM	33200 nM	> 100 µM	29500 nM	> 100 µM	11100 nM	29.3 µM	4640 nM	18 µM	16.7 µM	42.8 µM	24200 nM	> 100 µM	6760 nM	20.2 µM
C1=C2/CC[C@H](Sc3ccccc3)[C@H]2C2(CCCCC/1)OCCO2		79.6 µM		55 µM		> 100 µM		> 100 µM		54.5 µM		> 100 µM		59.1 µM		> 100 µM		73.8 µM		> 100 µM
C/C=C(/COC(C)=O)C(=O)OC1C=C(C=O)C(C)(C)C=C1C (configuration not stated)		> 100 µM		> 100 µM		> 100 µM		> 100 µM		> 100 µM		> 100 µM		> 100 µM		> 100 µM		> 100 µM		> 100 µM
CCOc1cc2ncc(C#N)c(Nc3ccc(OCc4ccccn4)c(Cl)c3)c2cc1NC(=O)/C=C/CN(C)C	0.416 µM and 0.351 µM	7.82 µM and > 10 µM	1.41 µM and > 4.55 µM	4.27 µM and > 10 µM	2520 nM	22.9 µM and > 10 µM	274 nM and 236 nM	4.6 µM and > 10 µM	18.3 nM and 18.9 nM	25.6 µM and > 6.84 µM	491 nM and 502 nM	2.05 µM and 2.62 µM	1140 nM and 1820 nM	6.21 µM and 4.02 µM	4.24 µM and > 4.3 µM	11.5 µM and > 9.31 µM	610 nM	2.59 µM	568 nM and 615 nM	2.08 µM and 2.05 µM
Cc1c2c(nn1C)CSCc1cc(n(C)n1)CSc1cc(c3ccccc3c1)OCCCc1c(C(=O)O)n(C)c3c-2c(Cl)ccc13	5.11 µM	17.6 µM	4.16 µM	16 µM	3560 nM	13.9 µM	3380 nM	12.6 µM	3860 nM	15.7 µM	3320 nM	12.6 µM	2200 nM	5.22 µM	1.53 µM	7.33 µM	2840 nM	9.87 µM	3530 nM	13 µM
NC(=S)N/N=C/c1ncccc1N	5.98 µM	> 100 µM		> 80.7 µM	1780 nM	> 84.9 µM	789 nM	16.5 µM and > 10 µM	5130 nM	> 100 µM	2190 nM	> 63.4 µM	534 nM	22.3 µM and > 10 µM		1.23 µM and 0.673 µM	3000 nM	> 90.5 µM	1160 nM	> 33.7 µM
COc1ccc(C(C#N)Cc2cc(OC)c(OC)c(OC)c2)cc1 (configuration not stated)		> 100 µM		> 100 µM		> 100 µM		> 100 µM		> 100 µM		> 100 µM		37.3 µM		> 100 µM		> 100 µM		> 100 µM
